# Source: the RepoRT retention time repository (doi:10.1021/acs.analchem.2c02893)
# Test: RP, Thermo Scientific Acclaim RSLC 120 C18, 100 × 2.1 mm, 2.2 µm, 30 °C, 0.2 mL/min, estimated dead time 1.1 min; A: 90% water + 10% methanol + 0.01% formic acid + 5 mM ammonium formate, pH 3.61; B: methanol + 0.01% formic acid + 5 mM ammonium formate, pH 3.61; gradient (min/%B) 0/1 1/1 2/39 13/99.9 15/99.9 15.1/1 20.1/1
# Conditions: stereoisomer not certain
row,LC retention time [min],SMILES
1,5.98,CCC1OC(=O)C(C)C(OC2CC(C)(OC)C(O)C(C)O2)C(C)C(OC2OC(C)CC(N(C)C)C2O)C(C)(O)CC(C)CN(C)C(C)C(O)C1(C)O (configuration not stated) [Azithromycin]
2,6.76,CC(C)(C)NCC(O)COc1cccc2c1SCCC2 (configuration not stated) [Tertatolol]
3,5.92,CCc1nc(N)nc(N)c1-c1ccc(Cl)cc1 [Pyrimethamine]
4,7.91,CC(CC(c1ccccc1)c1ccccc1)NC(C)(C)C (configuration not stated) [Terodiline]
5,8.11,CNCCC(Oc1cccc2ccccc12)c1cccs1 (configuration not stated) [Duloxetine]
6,5.93,Oc1ccc(C=Cc2cc(O)cc(O)c2)cc1 [Resveratrol]
7,6.83,CC12CCC3c4ccc(O)cc4CCC3C1CC(O)C2O (configuration not stated) [E3  estriol (1-3-5(10)-estratrien-3 16-17-triol)]
8,3.64,Clc1ccc2nsnc2c1NC1=NCCN1 [Tizanidine]
9,13.1,CC=CC(=O)Oc1c(C(C)CCCCCC)cc([N+](=O)[O-])cc1[N+](=O)[O-] (configuration not stated) [Dinocap]
10,9.81,CCCc1nn(C)c2c(=O)[nH]c(-c3cc(C(C)=O)ccc3OCC)nc12 [Gendenafil]
11,6.28,COCC(C)N(C(=O)CS(=O)(=O)O)c1c(C)csc1C (configuration not stated) [Dimethenamide-ESA]
12,2.81,C=C(C)C(N)=O [Methacrylamide]
13,8.09,Cc1ccc(S(=O)(=O)NC(=O)NN2CCCCCC2)cc1 [Tolazamide]
14,7.08,CC(C(=O)O)c1ccc(CC(C)(C)O)cc1 (configuration not stated) [Ibuprofen- 2-Hydroxy]
15,7.64,Clc1ccc2c(c1)C(N1CCNCC1)=Nc1ccccc1O2 [Amoxapine]
16,7.84,CCCc1nn(C)c2c(=O)[nH]c(-c3cc(S(=O)(=O)N4CCN(CC)CC4)ccc3OCC)nc12 [HomoSildenafil]
17,2.96,CNC(=C[N+](=O)[O-])NCCSCc1csc(CN(C)C)n1 [Nizatidine]
18,5.68,CCOc1ccccc1C(N)=O [Ethenzamide]
19,2,NCC(O)COc1ccc(CC(N)=O)cc1 (configuration not stated) [Atenolol-desisopropyl]

row,LC retention time [min],SMILES
1,6.21,CC(C)(C(=O)c1cccnc1)c1cccnc1 [Metyrapone]
2,4.8,CC(=O)Oc1ccccc1C(=O)O [Acetylsalicylic acid_NH4 adduct]
3,4.66,O=C(O)c1ccccc1C(=O)Nc1ccc(S(=O)(=O)Nc2nccs2)cc1 [Sulfathiazole-Phthalyl]
4,2.83,CCN(CC)CCNC(=O)c1ccc(N)cc1 [Procainamide]
5,10.2,O=C(O)Cc1ccccc1Nc1c(Cl)cccc1Cl [Diclofenac]
6,11.2,"CCCCCCCCCCCC[N+](C)(C)[O-] [N,N-Dimethyldodecylamine N-oxide]"
7,13.2,CCCC(NC(C)C(=O)N1C(C(=O)O)CC2CCCCC21)C(=O)OCC (configuration not stated) [Perindopril]
8,5.66,Cc1ccccc1N1CCN(CCc2nnc3n2CCCC3)CC1 [Dapiprazole]
9,11.3,COC(=O)CCCOc1ccc(Cl)cc1Cl [2.4-DB-methylester]
10,11.2,CC(=O)C1CCC2C3CCC4=CC(=O)CCC4(C)C3CCC12C (configuration not stated) [Progesterone]
11,7.68,CC(C)(C(=O)O)c1ccc(C(O)CCCN2CCC(C(O)(c3ccccc3)c3ccccc3)CC2)cc1 (configuration not stated) [Fexofenadine]
12,2.32,Nc1cn[nH]c(=O)c1Cl [Desphenyl chloridazon]
13,1.93,CNCC(O)c1cccc(O)c1 (stereo not drawn) [Phenylephrine (broad peak)]
14,5.94,NC(=O)N1c2ccccc2CC(O)c2ccccc21 (configuration not stated) [Carbamazepine -10-Hydroxy]
15,6.58,CCNC(=O)C(C)OC(=O)Nc1ccccc1 (configuration not stated) [Carbetamide]
16,4.59,CC(CS)C(=O)N1CCCC1C(=O)O (configuration not stated) [Captopril]
17,8.53,Clc1ccc(C(c2ccccc2)N2CCNCC2)cc1 (configuration not stated) [Piperazine -1[(4-chlorophenyl) phenyl methyl]]
18,4.99,OCCOCCN1CCN(C2=Nc3ccc(O)cc3Sc3ccccc32)CC1 [Quetiapine-Hydroxy]

row,SMILES,LC retention time [min]
1,COCc1cnc(C2=NC(C)(C(C)C)C(=O)N2)c(C(=O)O)c1 (configuration not stated) [Imazamox],4.63
2,CCOP(=S)(NC(C)C)Oc1ccccc1C(=O)OC(C)C (configuration not stated) [Isofenphos],11.2
3,CNC(=O)Oc1cc(C)c(C)c(C)c1 [Trimethacarb (3.4.5-)],8.1
4,CC(C)(C)NCC(O)c1cc(Cl)c(N)c(C(F)(F)F)c1 (configuration not stated) [Mabuterol],5.28
5,COP(=S)(OC)Oc1ccc([N+](=O)[O-])c(Cl)c1 [Chlorthion],10.2
6,CNC(=O)Oc1ccc2c(c1)C1(C)CCN(C)C1N2C (configuration not stated) [Physostigmine],3.89
7,Cc1nnc2n1-c1ccc([N+](=O)[O-])cc1C(c1ccccc1)=NC2 [Nitrazolam],6.91
8,Cc1cc(Cl)ccc1OC(C)C(=O)O (configuration not stated) [Mecoprop],8.27
9,OC(Cn1cncn1)(c1ccc(F)cc1)c1ccccc1F (configuration not stated) [Flutriafol],8.12
10,COc1ccc2[nH]c(C)c(CCN(C)C)c2c1 [MeO-TMT (5-)],4.19
11,CN(C)C(=S)SSC(=S)N(C)C [Thiram (Tetramethylthiuramdisulfide.TMTD)],6.8
12,CCOc1cc(OP(=S)(OC)OC)nc(CC)n1 [Etrimfos],11
13,CC1(C)CCC(=Cc2ccc(Cl)cc2)C1(O)Cn1cncn1 (configuration not stated) [Triticonazole],10.1
14,CC(C)(C)c1ccc(CSc2cnn(C(C)(C)C)c(=O)c2Cl)cc1 [Pyridaben],13.4
15,O=C(c1cccc2ccccc12)c1cn(CCCCO)c2ccccc12 [JWH-073-M-4-OH-Butyl],9.56
16,COC(=O)C1=CCCN(C)C1 [Arecoline],1.74
17,O=C1CN=C(c2ccccc2Cl)c2cc(Br)ccc2N1 [Phenazepam],8.93
18,CCC1CCCC(OC2CCC(N(C)C)C(C)O2)C(C)C(=O)C2=CC3C(C=CC4CC(OC5OC(C)C(OC)C(OC)C5OC)CC43)C2CC(=O)O1 (configuration not stated) [Spinosyn A],11.2
19,CCc1ccc(C(=O)c2cn(CCCCCF)c3ccccc23)c2ccccc12 [EAM-2201],12.2
20,CNC(=O)c1cc(Cl)cc(C)c1NC(=O)c1cc(Br)nn1-c1ncccc1Cl [Chlorantraniliprole],8.7
21,CCOC(=O)c1cn2nc(OP(=S)(OCC)OCC)cc2nc1C [Pyrazophos],11.4
22,CC(C)=CCN1CCC2(C)c3cc(O)ccc3CC1C2C (configuration not stated) [Pentazocine],5.46
23,CCCCCn1cc(C(=O)c2cccc3ccccc23)c2ccc(O)cc21 [JWH-018-M-6-OH-Ind],11.2
24,c1ccc2c(c1)Cc1cccnc1N1CCNCC21 (configuration not stated) [Mirtazapine-Desmethyl (normirtazapine)],5.31
25,CCc1cccc(C)c1N(C(=O)CCl)C(C)COC (configuration not stated) [Metolachlor],10.3
